According to patent US10508130B2, “Crystalline polymorph of 15B-hydroxy-osaterone acetate” (ASKA Pharmaceutical Co., Ltd., priority 2016, dated 2019):

Experiments:
[1] = Friction or pulverization stability (automatic mortar grinder, PXRD); assay type: physicochemical; conditions: 50 mg pulverized one hour, pestle 124 g, 50 rpm; PXRD peak height ratio
Method: In an automatic mortar grinder (weight of pestle: 124 g, 50 rpm), 50 mg of a sample (the crystalline polymorphic form A or the crystalline polymorphic form B) was put, the sample was pulverized over one hour and sampled. A PXRD analysis of the sample was conducted to determine the change of a degree of crystallization. The degree of crystallization after one hour of the crystalline polymorphic form A was 46.8%, and that of the crystalline polymorphic form B was 22.2%. Thus, the crystalline polymorphic form A was stable to pulverization. Incidentally, the degree of crystallization was determined based on an intensity ratio (peak height) of a characteristic diffraction peak in the PXRD spectrum (for the crystalline polymorphic form A, a diffraction peak at 2θ=17.1°; for the crystalline polymorphic form B, a diffraction peak at 2θ=16.2°), and the change rate of crystallization degree was calculated.

[2] = Stability (stir-suspension) in mixed solvents; assay type: physicochemical; conditions: for proportion maintaining crystal structure: stirred; for stability of crystal form to the solvents commonly used in production of preparations: acetone/heptane, acetone/water, ethanol/water mixed solvents
Method: To (1) an acetone/heptane mixed solvent (1:1), (2) an acetone/water mixed solvent (1:1), or (3) an ethanol/water mixed solvent (1:1) was added the crystalline polymorphic form A, and the mixture was stirred. One day after, the crystalline polymorphic form A maintained a crystal structure thereof at a proportion of 98% in the mixed solvent (1), 99% in the mixed solvent (2), and 100% in the mixed solvent (3). Three days after, the crystalline polymorphic form A maintained a crystal structure thereof at a proportion of 95% in the mixed solvent (1), 98% in the mixed solvent (2), and 99% in the mixed solvent (3). Even seven days after, the crystalline polymorphic form A maintained a crystal structure thereof at a proportion of 95% in the mixed solvent (1), 98% in the mixed solvent (2), and 99% in the mixed solvent (3).

[3] = Angle of repose (powder flow property); assay type: physicochemical; conditions: for Angle of repose (°) Average: average of three measurements; for Degree of flow property: evaluated based on Japanese Pharmacopoeia, General Information (Powder Flow); for Angle of repose (°) First time: first measurement; for Angle of repose (°) Second time: second measurement; for Angle of repose (°) Third time: third measurement
Method: Probably due to being the prism crystal, the crystalline polymorphic form A of 15β-hydroxy-osaterone acetate is characterized by a high powder flow property and a small angle of repose. For example, the powdery crystalline polymorphic form A of 15β-hydroxy-osaterone acetate has an average angle of repose of, for example, about 30 to 38°, preferably about 32 to 37° (e.g., about 33 to 37°), and more preferably about 34 to 36°, when the angle of repose is measured three times in accordance with methods for angle of repose described in The Japanese Pharmacopoeia. Incidentally, the crystalline polymorphic form B of 15β-hydroxy-osaterone acetate has an average angle of repose of, for example, about 42 to 52° (e.g., about 44 to 50°, particularly about 45 to 47°) by the same measurement as above. The angle of repose can be evaluated as the following manner. A funnel (a glass funnel having a funnel diameter of 50 mm, a stem internal diameter of 7 mm, and a stem length of 40 mm) is provided, the height from the lower end of the funnel to a base surface (an upper surface of a cylinder having a diameter of 1.5 cm) is fixed to 4.5 cm, an excess amount of a powdery sample is dropped onto the center of the cylinder surface (the base surface) through the funnel, and an incident angle of the resulting accumulated powder is measured.
The height from a lower end of a funnel to a base surface (an upper surface of a cylinder having a diameter of 1.5 cm) was fixed to 4.5 cm, an excess amount of a powdery sample was dropped onto the center of the cylinder surface (the base surface) through the funnel. An incident angle (an angle of repose) of the resulting accumulated powder was measured. This operation was repeated three times, and the average value of the angle of repose was calculated.
In Table 1, the degree of flow property is evaluated based on Japanese Pharmacopoeia, General Information (G2 Solid-state Properties, Powder Flow), which is described about the relationship between the angle of repose and the flow property.

[4] = Pharmacokinetics in dog (oral capsule, plasma LC-MS/MS); assay type: in vivo; conditions: female dogs, 0.3 mg/kg oral, gelatin capsule with lactose hydrate, plasma 15β-hydroxy-osaterone acetate
Method: For each sample of the crystalline polymorphic form A obtained in Example 1 and the crystalline polymorphic form B obtained in Comparative Example 1, the sample was mixed at a dose of 0.3 mg/kg with 100 mg of lactose hydrate (manufactured by DFE Pharma), and the mixture was filled with a gelatin capsule (manufactured by Matsuya Corporation, MM, size: No. 2) to prepare a capsule preparation. The capsule preparation containing the crystalline polymorphic form A was orally administered to a first female dog group (5 dogs), and the capsule preparation containing the crystalline polymorphic form B was orally administered to a second female dog group (5 dogs). The blood was sampled from each dog 0.5, 1, 2, 3, 4, 5, 7, 10, 24, 48, and 72 hours after oral administration, and the blood plasma from each sample was obtained by centrifugation. The concentration of 15β-hydroxy-osaterone acetate in each blood plasma was measured by an LC-MS/MS (liquid chromatography-tandem mass spectrometry) method, and a time to reach a maximum plasma concentration (Tmax) and a maximum plasma concentration (Cmax) were calculated.

[5] = Thermal stability test (storage at 100° C., purity by HPLC); assay type: physicochemical; conditions: in air; for colour of crystal with the passage of time / colour of crystal on the seventh day after storage: 100° C.; for colour of crystal with the passage of time: after seventh day up to 28 days
Method: The crystalline polymorphic form A obtained in Example 1 and the crystalline polymorphic form B obtained in Comparative Example 1 were each stored at a temperature of 100° C. for 28 days (storage condition: in a thermostatic bath, in air). During the storage, the crystals were sampled every predetermined time, and the purity of 15β-hydroxy-osaterone acetate in each sample was measured by HPLC.

CC(=O)O[C@]1(C(C)=O)C[C@@H](O)[C@H]2[C@@H]3C=C(Cl)C4=CC(=O)OC[C@]4(C)[C@H]3CC[C@@]21C [Crystalline polymorphic form A, 17α-acetoxy-6-chloro-15β-hydroxy-2-oxapregna-4,6-diene-3,20-dione]
degree of crystallization after one hour [1]: 46.8% | proportion maintaining crystal structure ([2]; acetone/heptane mixed solvent (1:1), one day after): 98% | proportion maintaining crystal structure ([2]; acetone/heptane mixed solvent (1:1), seven days after): 95% | proportion maintaining crystal structure ([2]; acetone/heptane mixed solvent (1:1), three days after): 95% | stability of crystal form to the solvents commonly used in production of preparations [2]: highly stable | proportion maintaining crystal structure ([2]; acetone/water mixed solvent (1:1), one day after): 99% | proportion maintaining crystal structure ([2]; acetone/water mixed solvent (1:1), seven days after): 98% | proportion maintaining crystal structure ([2]; acetone/water mixed solvent (1:1), three days after): 98% | proportion maintaining crystal structure ([2]; ethanol/water mixed solvent (1:1), one day after): 100% | proportion maintaining crystal structure ([2]; ethanol/water mixed solvent (1:1), seven days after): 99% | proportion maintaining crystal structure ([2]; ethanol/water mixed solvent (1:1), three days after): 99% | Angle of repose (°) Average [3]: 35 ° | Degree of flow property [3]: Good | Angle of repose (°) First time [3]: 36 ° | Angle of repose (°) Second time [3]: 33 ° | Angle of repose (°) Third time [3]: 38 ° | Cmax (maximum plasma concentration) [4]: 84.2 ± 29.06 ng/mL | Tmax (time to reach a maximum plasma concentration) [4]: 13.8 ± 8.33 h | colour of crystal with the passage of time [5]: maintained light brown | colour of crystal on the seventh day after storage [5]: light brown | thermal stability (active ingredient content / purity of 15β-hydroxy-osaterone acetate by HPLC) ([5]; stored at 100° C. for 28 days, thermostatic bath, FIG. 5): only a few decreases in active ingredient content

CC(=O)O[C@]1(C(C)=O)C[C@@H](O)[C@H]2[C@@H]3C=C(Cl)C4=CC(=O)OC[C@]4(C)[C@H]3CC[C@@]21C [Crystalline polymorphic form B, 17α-acetoxy-6-chloro-15β-hydroxy-2-oxapregna-4,6-diene-3,20-dione, reference compound]
degree of crystallization after one hour [1]: 22.2% | stability of crystal form to the solvents commonly used in production of preparations [2]: unstable | Angle of repose (°) Average [3]: 46 ° | Degree of flow property [3]: Poor | Angle of repose (°) First time [3]: 51 ° | Angle of repose (°) Second time [3]: 39 ° | Angle of repose (°) Third time [3]: 48 ° | Tmax (time to reach a maximum plasma concentration) [4]: 5.8 ± 1.60 h | Cmax ([4]; female, dog, plasma, po, 0.3 mg/kg, read-out: Cmax (maximum plasma concentration)): 128 ± 19.2 ng/mL | colour of crystal with the passage of time [5]: turned brown | colour of crystal on the seventh day after storage [5]: light brown
